Read-outs that look alike come from different tables or passages of the source.
Columns and labels:
Test in all cases: SelectScreen Kinase Profiling, single point inhibition and IC50 for off-target kinases
Format in all cases: biochemical
off-target kinases [1] = molecular target: off-target kinases (Homo sapiens, UniProt P57059); settings: SIK1, LanthaScreen Binding
off-target kinases [2] = molecular target: off-target kinases (Homo sapiens, UniProt P06213); settings: INSR, ZLYTE, ATP Km app
off-target kinases [3] = molecular target: off-target kinases (Homo sapiens, UniProt P11362); settings: FGFR1, ZLYTE, ATP Km app
Sequence of off-target kinases (Homo sapiens, UniProt P11362) (P11362 22-822): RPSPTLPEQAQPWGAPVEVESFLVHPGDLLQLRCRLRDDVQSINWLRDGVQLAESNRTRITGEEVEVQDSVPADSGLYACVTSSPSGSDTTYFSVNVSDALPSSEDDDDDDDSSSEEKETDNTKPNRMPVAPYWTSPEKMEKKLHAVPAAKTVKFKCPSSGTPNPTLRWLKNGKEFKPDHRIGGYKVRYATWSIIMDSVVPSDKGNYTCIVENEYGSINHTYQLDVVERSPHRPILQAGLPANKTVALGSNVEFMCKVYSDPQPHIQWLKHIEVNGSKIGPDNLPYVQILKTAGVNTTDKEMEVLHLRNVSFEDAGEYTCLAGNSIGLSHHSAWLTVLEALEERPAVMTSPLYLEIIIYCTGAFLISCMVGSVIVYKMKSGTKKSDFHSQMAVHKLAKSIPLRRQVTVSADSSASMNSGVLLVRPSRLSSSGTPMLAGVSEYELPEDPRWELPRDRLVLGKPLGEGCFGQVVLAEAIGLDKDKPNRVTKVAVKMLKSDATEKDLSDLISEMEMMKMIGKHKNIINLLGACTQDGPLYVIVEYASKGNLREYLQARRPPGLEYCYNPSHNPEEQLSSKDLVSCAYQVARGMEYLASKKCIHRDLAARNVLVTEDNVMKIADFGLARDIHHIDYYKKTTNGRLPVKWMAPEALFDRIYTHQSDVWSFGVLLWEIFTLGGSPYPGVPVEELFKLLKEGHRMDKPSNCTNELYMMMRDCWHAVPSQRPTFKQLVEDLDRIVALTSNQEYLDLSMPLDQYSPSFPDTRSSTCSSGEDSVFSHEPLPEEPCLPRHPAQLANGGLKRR

off-target kinases [4] = molecular target: off-target kinases (Homo sapiens, UniProt P07949, V804L); settings: RET V804L, ATP Km app, ZLYTE
Sequence of off-target kinases (Homo sapiens, UniProt P07949, V804L) (P07949 29-1114 V804L): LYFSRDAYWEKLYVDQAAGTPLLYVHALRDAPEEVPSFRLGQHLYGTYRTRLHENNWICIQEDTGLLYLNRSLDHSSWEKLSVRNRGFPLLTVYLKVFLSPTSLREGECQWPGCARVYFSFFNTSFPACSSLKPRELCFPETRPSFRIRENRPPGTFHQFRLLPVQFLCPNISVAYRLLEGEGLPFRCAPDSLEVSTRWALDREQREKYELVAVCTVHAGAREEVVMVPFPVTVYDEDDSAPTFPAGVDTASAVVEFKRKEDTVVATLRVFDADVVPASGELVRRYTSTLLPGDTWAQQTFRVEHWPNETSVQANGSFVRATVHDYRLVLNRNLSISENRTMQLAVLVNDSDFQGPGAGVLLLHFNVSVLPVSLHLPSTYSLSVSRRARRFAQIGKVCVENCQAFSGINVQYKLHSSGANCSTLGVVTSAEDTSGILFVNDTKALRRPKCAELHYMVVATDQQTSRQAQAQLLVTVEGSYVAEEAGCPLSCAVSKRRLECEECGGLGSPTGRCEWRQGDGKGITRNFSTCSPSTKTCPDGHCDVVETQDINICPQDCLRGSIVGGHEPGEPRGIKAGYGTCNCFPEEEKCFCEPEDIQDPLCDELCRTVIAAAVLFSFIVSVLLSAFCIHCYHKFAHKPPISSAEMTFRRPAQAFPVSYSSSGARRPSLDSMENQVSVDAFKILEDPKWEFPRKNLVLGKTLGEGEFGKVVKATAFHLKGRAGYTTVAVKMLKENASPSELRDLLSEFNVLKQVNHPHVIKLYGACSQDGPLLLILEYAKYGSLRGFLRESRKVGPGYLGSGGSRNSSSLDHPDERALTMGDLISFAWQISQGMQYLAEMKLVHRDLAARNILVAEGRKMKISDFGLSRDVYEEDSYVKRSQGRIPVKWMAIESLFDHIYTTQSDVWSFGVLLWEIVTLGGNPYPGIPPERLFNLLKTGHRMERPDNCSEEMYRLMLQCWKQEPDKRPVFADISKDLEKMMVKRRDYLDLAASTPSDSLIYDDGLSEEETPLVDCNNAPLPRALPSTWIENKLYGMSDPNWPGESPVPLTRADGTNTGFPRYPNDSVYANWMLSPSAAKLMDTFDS

off-target kinases [5] = molecular target: off-target kinases (Homo sapiens, UniProt P07949); settings: RET, ATP Km app, ZLYTE
Sequence of off-target kinases (Homo sapiens, UniProt P07949) (P07949 29-1114): as the sequence (P07949 29-1114 V804L) above, with L776V counted along it

off-target kinases [6] = molecular target: T1, off-target kinases (Homo sapiens, UniProt Q8WXR4); settings: MYO3B (MYO3 beta), LanthaScreen Binding
T1 sequence (Q8WXR4 1-1341): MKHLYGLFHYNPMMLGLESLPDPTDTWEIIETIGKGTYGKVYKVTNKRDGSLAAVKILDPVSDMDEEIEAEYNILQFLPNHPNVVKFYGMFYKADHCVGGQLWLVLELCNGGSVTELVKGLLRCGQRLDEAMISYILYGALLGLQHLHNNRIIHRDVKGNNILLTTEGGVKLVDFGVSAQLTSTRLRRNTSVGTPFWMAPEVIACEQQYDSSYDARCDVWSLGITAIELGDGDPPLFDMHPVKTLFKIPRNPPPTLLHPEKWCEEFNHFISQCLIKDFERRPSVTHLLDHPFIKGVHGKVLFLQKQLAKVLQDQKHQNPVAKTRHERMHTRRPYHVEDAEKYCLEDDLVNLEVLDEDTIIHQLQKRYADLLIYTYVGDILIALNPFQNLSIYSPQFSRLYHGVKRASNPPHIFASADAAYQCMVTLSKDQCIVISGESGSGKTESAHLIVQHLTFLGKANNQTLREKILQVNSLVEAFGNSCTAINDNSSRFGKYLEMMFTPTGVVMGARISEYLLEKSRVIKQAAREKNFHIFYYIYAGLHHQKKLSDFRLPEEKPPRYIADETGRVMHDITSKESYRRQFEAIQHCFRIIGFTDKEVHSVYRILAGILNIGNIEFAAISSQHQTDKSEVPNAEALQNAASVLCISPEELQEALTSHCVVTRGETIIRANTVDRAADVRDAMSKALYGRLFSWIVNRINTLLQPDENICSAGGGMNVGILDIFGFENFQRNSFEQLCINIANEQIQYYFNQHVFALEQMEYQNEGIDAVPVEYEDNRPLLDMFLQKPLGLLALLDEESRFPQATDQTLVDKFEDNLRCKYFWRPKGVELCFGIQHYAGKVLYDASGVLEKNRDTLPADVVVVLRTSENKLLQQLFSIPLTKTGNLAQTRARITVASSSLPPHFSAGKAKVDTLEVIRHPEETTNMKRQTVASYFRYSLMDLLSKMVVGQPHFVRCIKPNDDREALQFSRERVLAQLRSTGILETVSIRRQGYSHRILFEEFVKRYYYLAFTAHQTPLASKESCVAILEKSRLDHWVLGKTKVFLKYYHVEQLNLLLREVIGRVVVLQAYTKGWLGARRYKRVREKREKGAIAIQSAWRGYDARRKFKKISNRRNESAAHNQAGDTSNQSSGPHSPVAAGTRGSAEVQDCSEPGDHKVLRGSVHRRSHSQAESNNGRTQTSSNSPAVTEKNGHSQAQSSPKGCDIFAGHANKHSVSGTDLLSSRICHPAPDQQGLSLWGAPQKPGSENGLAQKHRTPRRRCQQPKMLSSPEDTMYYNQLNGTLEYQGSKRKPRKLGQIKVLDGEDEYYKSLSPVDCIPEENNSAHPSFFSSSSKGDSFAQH

Sequence of off-target kinases (Homo sapiens, UniProt P06213) (P06213 28-1382): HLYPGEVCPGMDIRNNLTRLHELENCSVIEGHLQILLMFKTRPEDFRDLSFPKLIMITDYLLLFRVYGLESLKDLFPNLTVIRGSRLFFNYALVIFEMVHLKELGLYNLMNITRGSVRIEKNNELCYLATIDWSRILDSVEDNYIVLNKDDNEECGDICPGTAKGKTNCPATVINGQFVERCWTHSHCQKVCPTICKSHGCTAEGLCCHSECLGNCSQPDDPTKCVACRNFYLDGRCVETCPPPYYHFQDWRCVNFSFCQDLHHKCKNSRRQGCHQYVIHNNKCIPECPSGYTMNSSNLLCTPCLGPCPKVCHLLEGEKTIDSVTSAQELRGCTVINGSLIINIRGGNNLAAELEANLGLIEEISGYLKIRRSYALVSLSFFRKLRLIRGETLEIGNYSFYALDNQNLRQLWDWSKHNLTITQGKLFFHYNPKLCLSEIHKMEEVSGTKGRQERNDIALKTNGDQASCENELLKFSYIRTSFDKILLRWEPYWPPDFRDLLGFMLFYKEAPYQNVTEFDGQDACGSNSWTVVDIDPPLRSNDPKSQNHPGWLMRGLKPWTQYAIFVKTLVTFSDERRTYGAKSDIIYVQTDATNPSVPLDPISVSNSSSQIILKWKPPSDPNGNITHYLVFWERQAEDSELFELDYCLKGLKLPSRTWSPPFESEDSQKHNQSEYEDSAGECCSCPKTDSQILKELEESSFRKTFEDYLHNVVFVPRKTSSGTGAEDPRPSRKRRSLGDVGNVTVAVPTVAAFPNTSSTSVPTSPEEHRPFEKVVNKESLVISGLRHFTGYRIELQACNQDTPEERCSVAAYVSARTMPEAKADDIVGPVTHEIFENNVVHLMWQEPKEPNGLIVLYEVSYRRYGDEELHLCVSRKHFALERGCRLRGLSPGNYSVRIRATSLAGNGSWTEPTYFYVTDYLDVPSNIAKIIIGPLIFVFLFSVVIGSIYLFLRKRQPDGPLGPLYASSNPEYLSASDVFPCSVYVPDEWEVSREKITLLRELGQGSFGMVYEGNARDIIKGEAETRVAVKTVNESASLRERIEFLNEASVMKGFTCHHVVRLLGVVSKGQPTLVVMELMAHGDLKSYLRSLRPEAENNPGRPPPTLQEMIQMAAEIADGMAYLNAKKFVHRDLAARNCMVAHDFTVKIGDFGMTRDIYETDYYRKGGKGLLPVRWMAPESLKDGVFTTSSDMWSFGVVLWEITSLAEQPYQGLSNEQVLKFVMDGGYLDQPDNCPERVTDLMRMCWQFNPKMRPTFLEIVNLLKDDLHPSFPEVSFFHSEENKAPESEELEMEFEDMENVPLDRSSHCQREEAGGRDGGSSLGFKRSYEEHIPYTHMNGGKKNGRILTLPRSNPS
Sequence of off-target kinases (Homo sapiens, UniProt P57059) (P57059 whole entry): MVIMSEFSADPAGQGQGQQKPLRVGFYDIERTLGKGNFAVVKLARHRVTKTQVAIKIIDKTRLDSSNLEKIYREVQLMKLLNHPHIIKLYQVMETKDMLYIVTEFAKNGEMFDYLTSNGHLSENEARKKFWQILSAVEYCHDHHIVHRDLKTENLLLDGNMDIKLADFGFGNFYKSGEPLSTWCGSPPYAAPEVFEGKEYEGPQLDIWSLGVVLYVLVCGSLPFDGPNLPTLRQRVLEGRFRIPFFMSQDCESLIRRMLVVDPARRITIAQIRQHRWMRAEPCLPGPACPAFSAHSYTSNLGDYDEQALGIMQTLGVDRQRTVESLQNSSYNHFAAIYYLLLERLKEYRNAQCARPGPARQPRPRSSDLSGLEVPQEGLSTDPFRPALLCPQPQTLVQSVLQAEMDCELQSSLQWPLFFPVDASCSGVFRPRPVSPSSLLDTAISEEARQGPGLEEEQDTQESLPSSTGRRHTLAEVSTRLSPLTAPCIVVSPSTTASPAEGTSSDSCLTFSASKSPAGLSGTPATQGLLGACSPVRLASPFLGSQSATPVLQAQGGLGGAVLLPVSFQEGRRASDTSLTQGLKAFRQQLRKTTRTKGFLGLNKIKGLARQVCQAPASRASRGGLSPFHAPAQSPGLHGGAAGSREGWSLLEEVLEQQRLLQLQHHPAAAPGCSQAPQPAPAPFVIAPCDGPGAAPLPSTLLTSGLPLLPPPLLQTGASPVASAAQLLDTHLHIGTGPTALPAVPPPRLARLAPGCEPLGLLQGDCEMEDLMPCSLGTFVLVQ

For N#Cc1cc(-c2ncnc(Nc3ccc(N4CCN(C5COC5)CC4)cc3)n2)ccc1OC1CCOCC1 [Compound 1, 5-(4-((4-(4-(oxetan-3-yl)piperazin-1-yl)phenyl)amino)-1,3,5-triazin-2-yl)-2-((tetrahydro-2H-pyran-4-yl)oxy)benzonitrile], the inhibition (off-target kinases [1]; read-out: % Inhibition 1) was 57%, the inhibition (off-target kinases [1]; read-out: % Inhibition 2) was 54% and the inhibition (off-target kinases [1]; read-out: % Inhibition Avg) was 56%. The inhibition (off-target kinases [2]; read-out: % Inhibition 1) was -1%, the inhibition (off-target kinases [2]; read-out: % Inhibition 2) was 1% and the inhibition (off-target kinases [2]; read-out: % Inhibition Avg) was 0%. For the same compound, the inhibition (off-target kinases [3]; read-out: % Inhibition 1) was -5%, the inhibition (off-target kinases [3]; read-out: % Inhibition 2) was -2% and the inhibition (off-target kinases [3]; read-out: % Inhibition Avg) was -3%. For the same compound, the inhibition (off-target kinases [4]; read-out: % Inhibition 1) was 71%, the inhibition (off-target kinases [4]; read-out: % Inhibition 2) was 66% and the inhibition (off-target kinases [4]; read-out: % Inhibition Avg) was 69%. It also gave an inhibition (off-target kinases [5]; read-out: % Inhibition 1) of 46%, an inhibition (off-target kinases [5]; read-out: % Inhibition 2) of 42% and an inhibition (off-target kinases [5]; read-out: % Inhibition Avg) of 44%. For the same compound, the inhibition (off-target kinases [6]; read-out: % Inhibition 1) was 17%, the inhibition (off-target kinases [6]; read-out: % Inhibition 2) was 20% and the inhibition (off-target kinases [6]; read-out: % Inhibition Avg) was 18%.
